Data published in patent US5539125A, “1-azabicyclo[3.3.0]octan derivative, salt thereof, process for the preparation of same and use thereof as hypermotility agents” (Sanwa Kagaku Kenkyusho Co., Ltd., priority 1994, dated 1996).
Structures can show the parent of a compound that is named as a salt.

Target: T1, 5-HT4 receptor (Rattus norvegicus, UniProt Q62758)
T1 construct: muscular sample of mucous membrane in esophgus exentrated from a rat; from tissue; host or cells: rat oesophagus, muscularis mucosae (isolated tissue contracted with carbachol)
T1 sequence (Q62758 whole entry): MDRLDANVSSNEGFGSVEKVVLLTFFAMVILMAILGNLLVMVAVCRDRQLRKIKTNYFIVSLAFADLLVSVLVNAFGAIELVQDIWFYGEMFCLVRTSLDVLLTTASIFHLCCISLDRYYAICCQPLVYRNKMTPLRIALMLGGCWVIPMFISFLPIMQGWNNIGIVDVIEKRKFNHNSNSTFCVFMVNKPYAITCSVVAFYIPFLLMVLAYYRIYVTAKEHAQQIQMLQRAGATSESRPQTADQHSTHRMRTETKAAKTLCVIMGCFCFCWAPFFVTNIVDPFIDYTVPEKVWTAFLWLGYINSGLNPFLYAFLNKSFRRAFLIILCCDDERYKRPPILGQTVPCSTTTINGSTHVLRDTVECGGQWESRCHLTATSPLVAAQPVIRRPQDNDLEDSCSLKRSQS
Assay: Agonisting Action to 5-HT4 Receptor: relaxation of carbachol-contracted muscular sample of mucous membrane in rat esophagus
Settings: negative logarithm of concentration causing 50% relaxation
Source text: Pharmacol.", Vol. 343, page 439 (1991)].
Namely, a relaxation of the Test and Control compounds in various concentration showing to carbachol contradiction of a muscular sample of mucous membrane in esophgus exentrated from a rat was checked to calculate a concentration causing 50% relaxation and compared with its negative logarithm (P EC50).

Point of comparison: `Cc1cc2c(N)c(Cl)cc(C(=O)NCCC34CCCN3CCC4)c2o1` [Example 4, 4-Amino-N-[2-(1-azabicyclo[3.3.0]octan-5-yl)ethyl]-5-chloro-2-methylbenzo[b]furan-7-carboxamide. 1/2 fumarate], EC50 39.8 nM. Against it:
- CCCc1c(N)c(Cl)cc(C(=O)NCCC23CCCN2CCC3)c1OC [Example 6, 4-Amino-N-[2-(1-azabicyclo[3.3.0]octan-5-yl)ethyl]-5-chloro-2-methoxy-3-propylbenzamide. 1/2 fumarate] — 13-fold higher, 501 nM
- CCOc1c(C(=O)NCCC23CCCN2CCC3)cc(Cl)c2c1CCN2 [Example 2, N-[2-(1-Azabicyclo[3.3.0]octan-5-yl)ethyl]-7-chloro-2,3-dihydro-4-ethoxyindole-5-carboxamide. 1/2 fumarate] — 130-fold higher, 5010 nM
- COc1c(C(=O)NCCC23CCCN2CCC3)cc(Cl)c2c1CCN2 [Example 1, N-[2-(1-Azabicyclo[3.3.01]octan-5-yl)ethyl]-7-chloro-2,3-dihydro-4-methoxyindole-5-carboxamide. 1/2 fumarate] — 130-fold higher, 5010 nM
- Cc1oc2c(C(=O)NCCC34CCCN3CCC4)ccc(N)c2c1Cl [Example 3, 4-Amino-N-[2-(1-Azabicyclo[3.3.0]octan-5-yl)ethyl]-3-chloro-2-methylbenzo[b]furan-7-carboxamide.1/2 fumarate] — 50-fold higher, 2000 nM
- Cc1oc2c(C(=O)NCCC34CCCN3CCC4)cc(Cl)c(N)c2c1Cl [Example 5, 4-Amino-N-[2-(1-azabicyclo[3.3.0]octan-5yl)ethyl]-3,5-dichloro-2-methylbenzo[b]furan-7-carboxamide. 1/2 fumarate] — 20-fold higher, 794 nM
- CCCc1c(N)c(Cl)cc(C(=O)NCCC23CCCN2CCC3)c1OCC [Example 7, 4-Amino-N-[2-(1-azabicyclo[3.3.0]octan-5-yl)ethyl]-5-chloro-2-ethoxy-3-propylbenzamide. 1/2 fumarate] — 10-fold higher, 398 nM

Point of comparison: `C=CCc1c(N)c(Cl)cc(C(=O)NCCC23CCCN2CCC3)c1OCC` [Example 9, 4-Amino-N-[2-(1-azabicyclo[3.3.0]octan-5-yl)ethyl]-5-chloro-2-ethoxy-3-(2-propenyl)benzamide. 1/2 fumarate], pEC50 6.3. Against it:
- C=CCc1c(N)c(Cl)cc(C(=O)NCCC23CCCN2CCC3)c1OC [Example 8, 4-Amino-N-[2-(1-azabicyclo[3.3.0]octan-5-yl)ethyl]-5-chloro-2-methoxy-3-(2-propenyl)benzamide. 1/2 fumarate] — the same, 6.3

System: dopamine D2 receptor
Assay: not given
Settings: rat, in vivo, po, 100 mg/kg
Source text: The compounds (salts) obtained by Examples as well as known compound (Metoclopramide) were selected as Test and Control Compounds, respectively. The compound was orally administered to rats to observe for 2 days general symptoms including catalepsy and blepharoptosis due to antagonistic action of the compound to dopamine D2 receptor.

`CCN(CC)CCNC(=O)c1cc(Cl)c(N)cc1OC` [Metoclopramide, 4-amino-5-chloro-N-[(2-diethylamino)ethyl]-2-methoxybenzamide] was tested, and the “influence to central nerve system due to anti-dopamine action” value was “somewhat remarkable influence was recognized”.
